Where two headings read alike, the source gives them in different places.
Biological target: T1, ferroportin (Fpn) (Mus musculus, UniProt Q9JHI9)
T1 construct: endogenous in cells; host or cells: J774 mouse macrophage cell line
T1 sequence (Q9JHI9 1-570): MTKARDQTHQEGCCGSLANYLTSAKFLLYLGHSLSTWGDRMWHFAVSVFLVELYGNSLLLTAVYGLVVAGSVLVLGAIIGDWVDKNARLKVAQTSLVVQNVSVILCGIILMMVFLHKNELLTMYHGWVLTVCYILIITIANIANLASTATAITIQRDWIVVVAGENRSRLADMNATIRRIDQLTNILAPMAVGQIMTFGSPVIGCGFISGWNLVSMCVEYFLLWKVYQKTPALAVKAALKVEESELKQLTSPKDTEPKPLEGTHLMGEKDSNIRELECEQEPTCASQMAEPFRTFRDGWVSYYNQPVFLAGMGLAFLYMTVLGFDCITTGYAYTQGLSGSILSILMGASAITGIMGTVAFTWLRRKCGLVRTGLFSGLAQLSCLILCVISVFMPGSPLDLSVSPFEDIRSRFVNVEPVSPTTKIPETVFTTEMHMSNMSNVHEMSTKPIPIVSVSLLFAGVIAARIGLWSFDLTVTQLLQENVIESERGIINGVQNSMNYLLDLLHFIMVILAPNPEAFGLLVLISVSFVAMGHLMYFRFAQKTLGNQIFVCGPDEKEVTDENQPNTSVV
Assay: Hepcidin internalization assay (J774)
Type: cell-based
Text: This cellular assay allows quantification of the binding of hepcidin to ferroportin (Fpn) through microscopic detection of internalization of a fluorescently labeled hepcidin into J774 cells. […] Binding of hepcidin to Fpn triggers internalization and degradation of both hepcidin and Fpn. However, the TMR (6-carboxytetramethylrhodamine) fluorophore attached to hepcidin remains associated with the cell after degradation of the hepcidin peptide backbone. Therefore, microscopic detection of cell-associated TMR fluorescence is a measure of hepcidin binding to Fpn and internalization of hepcidin and Fpn. If TMR-hepcidin is prevented from binding to Fpn, cellular TMR fluorescence remains low (Dürrenberger et al, 2013). The effect of small molecular weight Fpn inhibitor compounds in this assay was evaluated in vitro as described below.
J774 cells, harvested from ca. 80% confluent cultures, were plated at 8x10^5 cells/ml in complete medium (DMEM, 10% FBS, 1% Penicillin-Streptomycin) containing 200 µM Fe(III)NTA (nitrilotriacetic acid), 100 µl per well of 96 well MicroClear plates (Greiner; Cat. 655090) and grown at 37° C. with 5% CO2. After overnight incubation, cells were washed 3 times with prewarmed DMEM w/o phenol red, 30 µl/well of DMEM w/o phenol red was added after the final wash and 10 µl/well of dilution series of test compounds were added in triplicates. J774 cells were pre-incubated with test compounds at 37° C. with 5% CO2 for 15 min. before TMR-hepcidin was added at 25 nM final concentration. Cells were incubated in a total volume of 50 µl at 37° C. with 5% CO2 for 2 hours, then Hoechst 33342 dye was added to a final concentration of 0.5 µg/ml to stain nuclei and further incubated for 10 min. at 37° C. with 5% CO2. Cells were washed 3 times with PBS and fixed in 100 µl of 4% paraformaldehyde in PBS for 15 min. at room temperature. After removal of the paraformaldehyde solution, cells were washed 3 times with PBS leaving 100 µl per well and the plates were sealed with foil plate seal. TMR (530-550 nm excitation / 575-625 nm emission / 400 ms exposure time) and Hoechst 33342 (360-370 nm excitation / 420-460 nm emission / 10 ms exposure time) fluorescence images were acquired using a ScanR plate imager (Olympus) with a 20x high NA objective. Four pictures were acquired per well and fluorescence channel covering ca. 1500 cells per well. The acquired image data was analysed with the ScanR image analysis software. Image analysis included detection of nuclei (Hoechst 33342 fluorescence), identification of cell-associated regions, application of a virtual channel and thresholding for rolling-ball-type background reduction, followed by application of the Sum(Mean) algorithm to measure the TMR fluorescence associated with cells as a quantitative measure for internalized TMR- hepcidin. IC50 values were calculated with the Sum(Mean) raw data using “log(inhibitor) vs. response” curve fitting of Prism 5 software (GraphPad Software Inc., version 5.02). For each data set the fit of the “log(inhibitor) vs. response (three parameters)″ model was compared to the fit of the “log(inhibitor) vs. response - Variable slope (four parameters)″ model and the IC50 data of the preferred model was used. IC50 data of the Compounds according to formula (II) and (II′), that were tested in the hepcidin internalization assay are shown in Table 1.

[1] = J774 cells, (II) and (II′) tested as 3HCl-salts, n=2, read-out: Hepcidin internalization (J774) IC50
[2] = average of multiple measurements, hepcidin internalization assay, 3HCl-salts, read-out: J774 IC50

IC50 [1] [nM] | IC50 [2] [nM] | SMILES
7.3 | 7 | O=C(NCc1ncccc1F)c1coc(CCNCCc2nc3ccccc3[nH]2)n1 [Compound (II)]
5.9 | 6 | O=C(NCc1ncccc1Br)c1coc(CCNCCc2nc3ccccc3[nH]2)n1 [Compound (II′)]
10.7 | – | CC[C@H](C)[C@@H]1NC(=O)[C@@H](NC(=O)[C@@H](NC(=O)[C@@H]2CCCN2C(=O)[C@H](Cc2ccccc2)NC(=O)[C@H](Cc2c[nH]cn2)NC(=O)[C@@H](NC(=O)[C@@H](N)CC(=O)O)[C@@H](C)O)[C@@H](C)CC)CSSC[C@@H](C(=O)N[C@@H](CCCCN)C(=O)N[C@H](C(=O)O)[C@@H](C)O)NC(=O)[C@@H]2CSSC[C@@H]3NC(=O)[C@@H]4CSSC[C@H](NC(=O)[C@H](Cc5ccccc5)NC1=O)C(=O)N[C@@H](CSSC[C@H](NC(=O)[C@H](CCCCN)NC(=O)[C@H](CO)NC(=O)[C@H](CCCNC(=N)N)NC(=O)[C@H](Cc1c[nH]cn1)NC3=O)C(=O)NCC(=O)N[C@@H](CCSC)C(=O)N2)C(=O)NCC(=O)N4 [hepcidin, reference compound]
